Data published in patent US8697706B2 (priority 2011, dated 2014).

System: HCV pseudoparticles (genotype 1a HCV E1 and E2 envelope, H77C isolate)
Assay: microbe, parasite or virus in culture
Type: cell-based, HCV genotype 1a (H77C isolate)
Details: Hepatitis C virus, Huh-7, 48 h, HCV pseudoparticle entry into Huh7 cells, luciferase measured 2 days after infection

Structure (SMILES) | EC50 (class symbol) | EC50 (average of duplicate)
CC1(C)CNCCCOc2ccc(cc2)CNc2cc(OCC(F)(F)F)nc(n2)Nc2ccc(cc2)C(=O)NC1 [Compound 3002] | < 100 nM | 
CC1(C)CNCCCOc2ccc(cc2)CNc2nc(cc(OCC(F)(F)F)n2)Nc2ccc(cc2)C(=O)NC1 [Compound 3001] | 100 to 1000 nM | 106 nM
